Paper PMC9296036, “A peptide interfering with the dimerization of oncogenic KITENIN protein and its stability suppresses colorectal tumour progression” (Clinical and Translational Medicine, 2022)
Ends that are not written are not given here.

Molecular target: T1, KITENIN homodimer (Homo sapiens, UniProt Q8TAA9)
T1 construct: Lysates of 293T cells expressing full‐length KITENIN‐myc; expressed in transfected cells; host or cells: Caco2
T1 sequence (Q8TAA9 1-524): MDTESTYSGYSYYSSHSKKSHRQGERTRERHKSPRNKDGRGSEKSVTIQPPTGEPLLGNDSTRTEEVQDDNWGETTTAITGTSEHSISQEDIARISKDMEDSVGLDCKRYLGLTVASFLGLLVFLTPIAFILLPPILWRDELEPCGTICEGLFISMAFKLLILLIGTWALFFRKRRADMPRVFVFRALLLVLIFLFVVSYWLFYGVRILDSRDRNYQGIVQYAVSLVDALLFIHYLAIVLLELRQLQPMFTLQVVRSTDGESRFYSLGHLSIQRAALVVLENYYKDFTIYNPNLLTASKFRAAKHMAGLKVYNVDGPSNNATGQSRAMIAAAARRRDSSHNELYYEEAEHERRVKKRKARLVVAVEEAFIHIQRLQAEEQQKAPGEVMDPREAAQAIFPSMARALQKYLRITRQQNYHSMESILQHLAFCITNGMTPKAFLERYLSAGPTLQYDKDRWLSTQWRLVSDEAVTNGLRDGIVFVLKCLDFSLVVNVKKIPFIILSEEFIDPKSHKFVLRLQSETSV
Assay: KITENIN homodimerization in Caco2 cells co-expressing KITENIN-V5/Myc (co-immunoprecipitation)
Format: cell-based
Source text: Antibodies against the following proteins were obtained from the indicated suppliers: Na^+/K^+ ATPase, GFP and tubulin (Santa Cruz Biotechnology); c‐Jun, p‐c‐Jun, ERK, p‐ERK, c‐MET, p‐c‐MET and GST (Cell Signaling Technology); V5, Myc (MBL); HA and β‐actin (Sigma); KITENIN (Atlas); His and RACK1, LC3, p62, Myo10, and eukaryotic elongation factor 2 (eEF2) (Abcam). They were used with appropriate secondary antibodies (Thermo). For transient transfection analyses, Caco2, HCT116 and 293T cells were transfected with various plasmids and harvested for immunoblot analysis 48 h after transfection. For most assays using stable cell lines, mixed polyclonal cells were used to exclude clonal variation. […]
FIGURE 2 KAI1 C‐terminal interacting tetraspanin (KITENIN) dimerization‐interfering peptide (KDIP) suppresses KITENIN‐induced enhanced cell invasion through the inhibition of the homodimerization of KITENIN. […] After 48 h of treatment, KITENIN transcripts in cells were analysed by the 2^−ΔΔ ^CT method using Q‐PCR. […] Caco2 cells were co‐transfected with KITENIN‐V5/Myc and treated with or without KDIP or scrambled peptide (scr) and were immunoprecipitated with anti‐V5 antibody and detected by indicated antibodies. Numerals indicated a quantification of the MYC bands normalized to the corresponding V5 bands (left panel). […] Numerals indicated a quantification of the bands observed (left panel). […]

inhibition of dimerization and cell invasion caused by KITENIN overexpression, rank among the 7 peptides of the 449-487 region (Caco2 cells co-expressing KITENIN-Myc and KITENIN-V5, co-IP and invasion assay): most effective
homodimerization of KITENIN in cells (in words) (Caco2 cells co-transfected with KITENIN-V5/Myc, co-IP): reduced
Sequence: YARVRRRGPRRWRLVSDEAV [KDIP]
